Reference: PubChem BioAssay (NCI)
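The compound was tested at five concentrations on cells cultured in 96-well plates, with a 48-hour exposure period. TGI: concentration producing complete growth inhibition.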

Legend:
Test in all cases: inhibition of tumour cell growth, NCI panel, 48 h
UACC-62 melanoma = test system: UACC-62 melanoma
NCI-H226 lung = test system: NCI-H226 lung
KM12 colon = test system: KM12 colon
SNB-19 CNS = test system: SNB-19 CNS
CCRF-CEM leukemia = test system: CCRF-CEM leukemia
SK-OV-3 ovarian = test system: SK-OV-3 ovarian
SR leukemia = test system: SR leukemia
OVCAR-4 ovarian = test system: OVCAR-4 ovarian
MDA-MB-231 breast = test system: MDA-MB-231 breast
NCI-H522 lung = test system: NCI-H522 lung

Work on `Cc1ccc(C(=O)Nc2ccc(CP(=O)(O)O)cc2)cc1NC(=O)c1cccc(N)c1` yielded a TGI (UACC-62 melanoma) greater than 100 µM, a TGI (NCI-H226 lung) greater than 100 µM and a TGI (KM12 colon) greater than 100 µM. It also gave a TGI (SNB-19 CNS) greater than 100 µM, a TGI (CCRF-CEM leukemia) greater than 100 µM and a TGI (SK-OV-3 ovarian) greater than 100 µM. It also gave a TGI (SR leukemia) greater than 100 µM, a TGI (OVCAR-4 ovarian) greater than 100 µM and a TGI (MDA-MB-231 breast) greater than 100 µM. It also gave a TGI (NCI-H522 lung) greater than 100 µM.

Compound `O=c1c2ccccc2[nH]n1Cc1ccccc1` has a TGI (UACC-62 melanoma) greater than 100 µM, a TGI (NCI-H226 lung) greater than 100 µM and a TGI (KM12 colon) greater than 100 µM. It also gave a TGI (SNB-19 CNS) greater than 100 µM, a TGI (CCRF-CEM leukemia) greater than 100 µM and a TGI (SK-OV-3 ovarian) greater than 100 µM. The TGI (SR leukemia) was greater than 100 µM, the TGI (OVCAR-4 ovarian) was greater than 100 µM and the TGI (MDA-MB-231 breast) was greater than 100 µM. The TGI (NCI-H522 lung) was greater than 100 µM.

`O=C1c2ccccc2C(=O)N1CCSCC(CO)SCCN1C(=O)c2ccccc2C1=O` (configuration not stated) gave a TGI (UACC-62 melanoma) greater than 100 µM, a TGI (NCI-H226 lung) greater than 100 µM and a TGI (KM12 colon) greater than 100 µM. The TGI (SNB-19 CNS) was greater than 100 µM, the TGI (CCRF-CEM leukemia) was greater than 100 µM and the TGI (SK-OV-3 ovarian) was greater than 100 µM. The TGI (SR leukemia) was greater than 100 µM, the TGI (OVCAR-4 ovarian) was greater than 100 µM and the TGI (MDA-MB-231 breast) was greater than 100 µM. It also gave a TGI (NCI-H522 lung) greater than 100 µM.

In the case of `Cc1cccc(Br)[n+]1[O-]`, the TGI (UACC-62 melanoma) is reported as greater than 100 µM, the TGI (NCI-H226 lung) is reported as greater than 100 µM and the TGI (KM12 colon) is reported as greater than 100 µM. It also gave a TGI (SNB-19 CNS) greater than 100 µM, a TGI (CCRF-CEM leukemia) greater than 100 µM and a TGI (SK-OV-3 ovarian) greater than 100 µM. For the same compound, the TGI (SR leukemia) was greater than 100 µM, the TGI (OVCAR-4 ovarian) was greater than 100 µM and the TGI (MDA-MB-231 breast) was greater than 100 µM. The TGI (NCI-H522 lung) was greater than 100 µM.

`O=[N+]([O-])C(/C=C(\Cl)[N+](=O)[O-])=C1Nc2ccccc2N1` showed a TGI (UACC-62 melanoma) greater than 100 µM, a TGI (NCI-H226 lung) of 97.2 µM and a TGI (KM12 colon) greater than 100 µM. It also gave a TGI (SNB-19 CNS) greater than 100 µM, a TGI (CCRF-CEM leukemia) of 97.5 µM and a TGI (SK-OV-3 ovarian) greater than 100 µM. For the same compound, the TGI (SR leukemia) was 75.1 µM, the TGI (OVCAR-4 ovarian) was greater than 100 µM and the TGI (MDA-MB-231 breast) was greater than 100 µM. It also gave a TGI (NCI-H522 lung) greater than 100 µM.

With `COc1cc(-c2nc3ccc(N4CCN(C)CC4)cc3[nH]2)c(OC)c2[nH]c(COC(C)=O)nc12` the TGI (UACC-62 melanoma) was greater than 100 µM, the TGI (NCI-H226 lung) was greater than 100 µM and the TGI (KM12 colon) was greater than 100 µM. It also gave a TGI (SNB-19 CNS) greater than 100 µM, a TGI (CCRF-CEM leukemia) greater than 100 µM and a TGI (SK-OV-3 ovarian) greater than 100 µM. The TGI (SR leukemia) was 73 µM, the TGI (OVCAR-4 ovarian) was greater than 100 µM and the TGI (MDA-MB-231 breast) was greater than 100 µM. It also gave a TGI (NCI-H522 lung) greater than 100 µM.

For `CCCCCCCCCCCC(=O)OC[C@H](C[As](=O)(O)O)OC(=O)CCCCCCCCCCC`, the TGI (UACC-62 melanoma) was 6.98 µM, the TGI (NCI-H226 lung) was 38.8 µM and the TGI (KM12 colon) was 22 µM. For the same compound, the TGI (SNB-19 CNS) was 17.7 µM, the TGI (CCRF-CEM leukemia) was greater than 100 µM and the TGI (SK-OV-3 ovarian) was 28.9 µM. It also gave a TGI (SR leukemia) greater than 100 µM, a TGI (OVCAR-4 ovarian) of 37.7 µM and a TGI (MDA-MB-231 breast) of 16.3 µM. For the same compound, the TGI (NCI-H522 lung) was 5.09 µM.

`CC(CC(N)C(=O)O)C(=O)O` (configuration not stated) gave a TGI (UACC-62 melanoma) greater than 100 µM, a TGI (NCI-H226 lung) greater than 100 µM and a TGI (KM12 colon) greater than 100 µM. It also gave a TGI (SNB-19 CNS) greater than 100 µM, a TGI (CCRF-CEM leukemia) greater than 100 µM and a TGI (SR leukemia) greater than 100 µM. For the same compound, the TGI (OVCAR-4 ovarian) was greater than 100 µM, the TGI (MDA-MB-231 breast) was greater than 100 µM and the TGI (NCI-H522 lung) was greater than 100 µM.

Compound `COC(=O)N1CC(=O)C(C(=O)NC23CC4CC(CC(C4)C2)C3)C1` (configuration not stated) has a TGI (UACC-62 melanoma) greater than 100 µM, a TGI (NCI-H226 lung) greater than 100 µM and a TGI (KM12 colon) greater than 100 µM. The TGI (SNB-19 CNS) was greater than 100 µM, the TGI (CCRF-CEM leukemia) was greater than 100 µM and the TGI (SR leukemia) was greater than 100 µM. It also gave a TGI (OVCAR-4 ovarian) greater than 100 µM, a TGI (MDA-MB-231 breast) greater than 100 µM and a TGI (NCI-H522 lung) greater than 100 µM.

Work on `COc1ccc(/C=C/C(=O)/C=C/c2ccc(OC)cc2OC)c(OC)c1` yielded a TGI (UACC-62 melanoma) of 52.5 µM, a TGI (NCI-H226 lung) of 37.6 µM and a TGI (KM12 colon) greater than 100 µM. For the same compound, the TGI (SNB-19 CNS) was 82.8 µM, the TGI (CCRF-CEM leukemia) was 13.5 µM and the TGI (SK-OV-3 ovarian) was 37.7 µM. The TGI (SR leukemia) was 13.1 µM, the TGI (OVCAR-4 ovarian) was 46.3 µM and the TGI (MDA-MB-231 breast) was 78.5 µM. The TGI (NCI-H522 lung) was 8.7 µM.

`CCc1c2c(cc3c1CC1(C3)Cc3cc4c(c(C(=O)OC)c3C1)CCCC4)CCCC2` (configuration not stated) gave a TGI (UACC-62 melanoma) of 35.1 µM, a TGI (NCI-H226 lung) greater than 100 µM and a TGI (KM12 colon) greater than 100 µM. It also gave a TGI (CCRF-CEM leukemia) greater than 100 µM, a TGI (SK-OV-3 ovarian) greater than 100 µM and a TGI (SR leukemia) greater than 100 µM. It also gave a TGI (OVCAR-4 ovarian) greater than 100 µM, a TGI (MDA-MB-231 breast) greater than 100 µM and a TGI (NCI-H522 lung) greater than 100 µM.

`CSc1nc(C)cc(Nc2ccc(O)c(CN3CCOCC3)c2)n1` gave a TGI (UACC-62 melanoma) greater than 100 µM, a TGI (NCI-H226 lung) greater than 100 µM and a TGI (KM12 colon) greater than 100 µM. The TGI (SNB-19 CNS) was greater than 100 µM, the TGI (CCRF-CEM leukemia) was greater than 100 µM and the TGI (SK-OV-3 ovarian) was greater than 100 µM. For the same compound, the TGI (SR leukemia) was greater than 100 µM, the TGI (OVCAR-4 ovarian) was greater than 100 µM and the TGI (MDA-MB-231 breast) was greater than 100 µM. It also gave a TGI (NCI-H522 lung) greater than 100 µM.

`CCCNC(=S)N/N=C(\C)c1ccc(S(=O)(=O)N(C)c2ccccc2)cc1` showed a TGI (UACC-62 melanoma) greater than 100 µM, a TGI (NCI-H226 lung) greater than 75.6 µM and a TGI (KM12 colon) greater than 100 µM. For the same compound, the TGI (SNB-19 CNS) was greater than 87.3 µM, the TGI (CCRF-CEM leukemia) was greater than 31.6 µM and the TGI (SK-OV-3 ovarian) was 97 µM. The TGI (SR leukemia) was greater than 100 µM, the TGI (OVCAR-4 ovarian) was greater than 100 µM and the TGI (MDA-MB-231 breast) was greater than 100 µM. For the same compound, the TGI (NCI-H522 lung) was greater than 100 µM.

`Cc1nc(SCC(=O)Nc2ccc(Cl)cc2)c2sc(=S)n(-c3ccccc3)c2n1` gave a TGI (UACC-62 melanoma) greater than 10 µM, a TGI (NCI-H226 lung) greater than 10 µM and a TGI (KM12 colon) greater than 10 µM. For the same compound, the TGI (SNB-19 CNS) was greater than 10 µM, the TGI (CCRF-CEM leukemia) was greater than 10 µM and the TGI (SK-OV-3 ovarian) was greater than 10 µM. The TGI (SR leukemia) was greater than 10 µM, the TGI (OVCAR-4 ovarian) was greater than 10 µM and the TGI (MDA-MB-231 breast) was greater than 10 µM. For the same compound, the TGI (NCI-H522 lung) was greater than 10 µM.

`CSC1(C)C(=O)Nc2c(OCc3ccccc3)cc([N+](=O)[O-])cc21` (configuration not stated) showed a TGI (UACC-62 melanoma) greater than 100 µM, a TGI (NCI-H226 lung) of 31 µM and a TGI (KM12 colon) greater than 100 µM. The TGI (SNB-19 CNS) was greater than 100 µM, the TGI (CCRF-CEM leukemia) was greater than 100 µM and the TGI (SK-OV-3 ovarian) was greater than 100 µM. The TGI (SR leukemia) was greater than 100 µM, the TGI (OVCAR-4 ovarian) was greater than 100 µM and the TGI (MDA-MB-231 breast) was greater than 100 µM. For the same compound, the TGI (NCI-H522 lung) was greater than 100 µM.

For `COc1cc2c(c(OC)c1OC)C(=O)[C@@H]1[C@H]2N1C(=O)NCCCl`, the TGI (UACC-62 melanoma) was greater than 100 µM, the TGI (NCI-H226 lung) was greater than 100 µM and the TGI (KM12 colon) was greater than 100 µM. It also gave a TGI (SNB-19 CNS) greater than 100 µM, a TGI (CCRF-CEM leukemia) greater than 100 µM and a TGI (SK-OV-3 ovarian) greater than 100 µM. For the same compound, the TGI (SR leukemia) was greater than 100 µM, the TGI (OVCAR-4 ovarian) was greater than 100 µM and the TGI (MDA-MB-231 breast) was greater than 100 µM. For the same compound, the TGI (NCI-H522 lung) was greater than 100 µM.

Work on `COc1cccc(C23CCCC(C2)NCC3Br)c1OC` (configuration not stated) yielded a TGI (UACC-62 melanoma) of 58.1 µM, a TGI (NCI-H226 lung) of 5.37 µM and a TGI (KM12 colon) greater than 100 µM. For the same compound, the TGI (SNB-19 CNS) was greater than 100 µM, the TGI (CCRF-CEM leukemia) was 99.3 µM and the TGI (SK-OV-3 ovarian) was greater than 100 µM. The TGI (SR leukemia) was 83.1 µM, the TGI (OVCAR-4 ovarian) was greater than 100 µM and the TGI (MDA-MB-231 breast) was greater than 100 µM. For the same compound, the TGI (NCI-H522 lung) was 53.3 µM.

`CCOC(=O)c1cc(-n2nnc3ccccc32)cn1C` showed a TGI (UACC-62 melanoma) greater than 10 µM, a TGI (NCI-H226 lung) greater than 10 µM and a TGI (KM12 colon) greater than 10 µM. It also gave a TGI (SNB-19 CNS) greater than 10 µM, a TGI (CCRF-CEM leukemia) greater than 10 µM and a TGI (SK-OV-3 ovarian) greater than 10 µM. It also gave a TGI (SR leukemia) greater than 10 µM, a TGI (OVCAR-4 ovarian) greater than 10 µM and a TGI (MDA-MB-231 breast) greater than 10 µM. It also gave a TGI (NCI-H522 lung) greater than 10 µM.
